From patent publication US20220183290A1, “CHEMICALS WHICH ALTER THE PRODUCTION OF METABOLITES IN CULTIVATED PLANTS” (priority 2017, published 2022)

Tests used:
[1] = system: Cannabis sp. hemp varietal clones (Happy Camper); assay: Example 1: indoor cultivation experiment, elicitor treatments, secondary metabolite content of flowers; format: in vivo; details: for terpene production (in words): applied alone or in conjunction with other elicitor treatments; for Total terpene production, change: either MeJA and/or SA (pooled) vs control or si only
Source text: Applicant performed an indoor cultivation experiment with 30 identical Cannabis sp. hemp varietal clones (Happy Camper, CBDRx LLC, Colorado). Each of the thirty plants was randomly assigned to one of six treatment groups to test the efficacy and effectiveness of each elicitor compound in isolation or in combination. Plants were maintained in an isolated indoor growing environment under eight, 600-watt double-ended electronic high pressure sodium lamps (Gavita International B.V) under a photoperiod of 12 hours of light per 24-hour day and potted in 1-gallon black plastic pots with a 55% coco coir/45% perlite media (Miller Soils LLC, Longmont, Colo., USA), then transplanted into 10-gallon fabric pots (Smart Pot, High Caliper Growing, USA) filled with a mixture of 75% coco coir and 25% cork (DNA-Mills Ltd, London, England), irrigated as needed with tap water and fertilized consistently to maintain good health with a 4-20-39 base nutrient supplemented with 15-0-0 Calcium Nitrate and commercially available magnesium sulfate (Hydro Gardens International, Colorado Springs, Colo.) at a rate of 300-500 ppm (TDS) as needed. A microbial inoculant (Tribus Original, Impello Biosciences, Ft. Collins, Colo.) was applied at a rate of 1 mL/gallon of nutrient solution every watering to improve plant health. Drip emitters and an automated watering system supplied water and nutrients equally to each plant. Temperatures in the growing environment were maintained at 75° F.±15° F. with a relative humidity range of 30-60%. Every 14 days of growth, all plants were supplemented with a fish protein hydrolysate at a rate of 5 ml/gallon of the previously mentioned nutrient solution to improve nutrition (Innate Bloom 4-2-1, Impello Biosciences, Colorado).
Treatment groups included (1) applications of MeJA as a foliar spray at a concentration of 7.5 mM, (2) SA as a foliar spray at a concentration of 0.5 mM, (3) SiA as a root drench at a concentration of 3 mM, (4) MeJA as a foliar spray at a concentration of 7.5 mM and a root drench of SiA at a concentration of 3 mM, and (5) MeJA as a foliar spray at a concentration of 7.5 mM and a root drench of SiA at a concentration of 3 mM and foliar applications of SA at a concentration of 0.5 mM. The control group was not treated with any applications aside from normal fertilization. Foliar applications of MeJA were performed in the morning hours, within 30 minutes of daybreak, with applications covering plant leaves until dripping. Applications of SA for all SA treatment groups were performed in the morning hours, within 30 minutes of daybreak, with applications covering plant leaves until dripping. Applications of SiA were performed by hand additions of SiA mixtures at the desired concentration to the plant roots of treatment plants; control plants were treated with plain water in the same volume at the same time without the addition of SiA.
7.5 mM solutions of MeJA (mixture of isomers) were prepared in 1-liter volumes using 93% purity MeJA stock solution (TCI America, CAS #[…]) added to reverse osmosis water dropwise with a pipettor while stirring. The pH of the final solution was not adjusted. 0.5 mM solutions of SA were prepared from a 0.5M stock solution, which was prepared using Salicylic Acid powder (ThermoFisher Scientific, CAS #69-72-7), dissolved in 200-proof anhydrous EtOH, denatured (VWR Life Sciences) and stored in a sealed glass bottle. Plant-useable solution was prepared by diluting 1000 μL, of the stock SA solution in 999 mL of reverse osmosis water. Foliar applications of MeJA and SA were made with a 1-L volume low-pressure hand-pump sprayer (Mondi Products LTD, Canada). Silicic Acid solutions were prepared as needed using Silicic Acid stock powder (extra pure light DAB, Millipore Sigma, CAS #7699-41-4), dissolved in reverse osmosis water to the desired final concentration.
Plants were maintained under identical conditions in the same growing environment. […]

[2] = system: plants from clone (Charlotte x Tangie); assay: Example 4: flower yield / plant weight with varying concentrations of MeJA foliar spray; format: in vivo, Cannabis sativa
Source text: Example 4: Assessment of Flower Yield in plants treated with varying concentrations of MeJA. […] In turn, we designed an experiment to evaluate the efficacy and effectiveness of applying MeJA as a foliar spray to plants in different concentrations.
Fourteen (14) identical plants from clone (Charlotte x Tangie, CBDRx) were cultivated in 1-gallon black plastic pots in a media mixture of 55% coco coir, 45% perlite (Miller Soils LLC, Colorado). Plants were rooted in 1-inch A-OK rockwool cubes (Grodan, B.V.) uniformly prior to transplant into the 1-gallon pots. At the time of transplant, plants were also transitioned from a photoperiod of 18 hours of light per day to a photoperiod of 12 hours of light per day to induce flowering. Each plant was maintained with a standard, commercially available 3-part (4-20-39, CaNO3, MgSO4) nutrient solution at a recommended rate of 350 ppm (Hydro Gardens International, CO), hand watered as needed with 1 L per plant. Plants were randomly assigned to one of four groups, including three treatment groups and one control group: 0 mM MeJA (control), 5 mM MeJA (low), 7.5 mM MeJA (med), and 10 mM MeJA (high). Plants were maintained under identical environmental conditions on a 4′×8′ black plastic table (Botanicare, USA) under 1200 w of light (Gavita Inc, Ne). […]

[3] = day 28, MeJA alone or in conjunction with other elicitors vs non-MeJA treatment, p≤0.05

In the case of CC/C=C\CC1C(=O)CCC1CC(=O)OC (stereo not shown) [MeJA, Methyl Jasmonate], the “terpene production (in words)” value [1] was “increased terpene production”, the “Total cannabinoids concentration, change” value [1, 3] was “+61.96%” and the “total CBD concentration, change” value [1, 3] was “+61.49%”. The “total THC concentration, change” value [1, 3] was “+61.30%”, the “Total terpene production, change” value ([1]; day 28, p≤0.05) was “+35%” and the “Total CBDA, change” value ([1]; day 42, MeJA treatments vs no MeJA treatments, p≤0.0005) was “+54.99%”. For the same compound, the “Total THC-A, change” value ([1]; day 42, MeJA treatments vs no MeJA treatments, significance less than 0.0005) was “+56.82%”, the “Total cannabinoids (THC, THCA, CBD, CBDA), change” value ([1]; day 42, groups with MeJA alone or in combination vs groups without MeJA, p≤0.001) was “+54.67%” and the “total cannabinoid concentration, change” value ([1]; day 42, plants that received MeJA treatments (MeJA or MeJA+SiA or MeJA+SiA+SA) vs control group, p≤0.005) was “+41.49%”. The “total cannabinoid contents, change” value ([1]; day 63, some sort of MeJA treatment (MeJA only, MeJA with SiA, or ALL) vs control group, p≤0.05) was “+33.11%”, the “total cannabinoid contents, change” value ([1]; day 63, some sort of MeJA treatment (MeJA only, MeJA with SiA, or ALL) vs no MeJA (control, SA only, SiA only), p≤0.000001) was “+58.64%” and the “CBD content, change” value ([1]; day 63, vs control plants, p≤0.05 (ALL: p≤0.01)) was “+23.27%”. The “cannabinoid production (in words)” value ([1]; throughout the flowering cycle, applied alone or in conjunction with other treatments) was “consistently increased cannabinoid production”, the “impact on plant performance” value ([2]; exogenous foliar applications, 5-10 mM MeJA) was “did not negatively impact plant performance” and the “differences in weights between the treatment groups” value ([2]; foliar spray 0, 5, 7.5, 10 mM MeJA every 14 days from day 7 of the reproductive cycle) was “No significant differences”.

O=C(O)c1ccccc1O [SA, Salicylic acid] was tested, and the “terpene production (in words)” value [1] was “increased terpene production”, the “THCA production (in words)” value ([1]; applied independently without supplemental MeJA applications) was “decreased THCA production” and the “Total terpene production, change” value ([1]; day 28, p≤0.05) was “+35%”. For the same compound, the “THCA, change” value ([1]; day 63, SA treatment plants vs control plants, p≤0.05) was −45.67%.
